The target in experiment [1] is T1, human opioid receptor-like receptor (ORL-1) (Homo sapiens, UniProt P41146).
T1 construct: host or cells: HEK-293
As to the kind of experiment: biochemical. It is filed as binding.

The target of another experiment is Mu opioid receptor (Homo sapiens, UniProt P35372). As to the kind of experiment: Affinity at the μ receptor ([35S]GTPγS binding assay, membranes). The note with it: read-out: Mu Receptor Affinity calc Ki. The protocol: Affinity at the μ receptor for compounds was obtained according to the following assay:
Mu opioid receptor membrane solution was prepared by sequentially adding final concentrations of 0.075 μg/μl of the desired membrane protein, 10 μg/ml saponin, 3 μM GDP and 0.20 nM [^35S]GTPγS to binding buffer (100 mM NaCl, 10 mM MgCl2, 20 mM HEPES, pH 7.4) on ice. The prepared membrane solution (190 μl/well) was transferred to 96-shallow well polypropylene plates containing 10 μl of 20×concentrated stock solutions of agonist prepared in DMSO. Plates were incubated for 30 min at room temperature with shaking. Reactions were terminated by rapid filtration onto 96-well Unifilter GF/B filter plates (Packard) using a 96-well tissue harvester (Brandel) and followed by three filtration washes with 200 μl ice-cold binding buffer (10 mM NaH2PO4, 10 mM Na2HPO4, pH 7.4). Filter plates were subsequently dried at 50° C. for 2-3 hours. Fifty μl/well scintillation cocktail (MicroScint20, Packard) was added and plates were counted in a Packard Top-Count for 1 min/well.
Data were analyzed using the curve fitting functions in GraphPad PRISM™, v.3.0 and the results for several compounds are set forth in table 2 below: […]

“And” between values parts separate entries of the source, which are not always exact repeats. Equal values may be shown once. Read-outs that look alike come from different tables or passages of the source.

By Ki is commonly meant a measure of affinity in units of concentration, obtained from inhibition or displacement.

T1 sequence (P41146 whole entry): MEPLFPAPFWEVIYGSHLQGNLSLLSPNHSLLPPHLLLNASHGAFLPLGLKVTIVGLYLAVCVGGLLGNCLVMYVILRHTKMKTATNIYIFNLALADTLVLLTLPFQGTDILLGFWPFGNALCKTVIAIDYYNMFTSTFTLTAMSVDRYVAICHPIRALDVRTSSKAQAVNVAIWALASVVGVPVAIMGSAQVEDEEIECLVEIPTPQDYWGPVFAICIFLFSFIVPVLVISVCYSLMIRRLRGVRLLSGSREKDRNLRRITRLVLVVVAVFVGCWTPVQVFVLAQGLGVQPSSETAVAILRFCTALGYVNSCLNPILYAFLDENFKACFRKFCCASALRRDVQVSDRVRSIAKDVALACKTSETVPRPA
Chain of Mu opioid receptor (P35372 whole entry, species assumed): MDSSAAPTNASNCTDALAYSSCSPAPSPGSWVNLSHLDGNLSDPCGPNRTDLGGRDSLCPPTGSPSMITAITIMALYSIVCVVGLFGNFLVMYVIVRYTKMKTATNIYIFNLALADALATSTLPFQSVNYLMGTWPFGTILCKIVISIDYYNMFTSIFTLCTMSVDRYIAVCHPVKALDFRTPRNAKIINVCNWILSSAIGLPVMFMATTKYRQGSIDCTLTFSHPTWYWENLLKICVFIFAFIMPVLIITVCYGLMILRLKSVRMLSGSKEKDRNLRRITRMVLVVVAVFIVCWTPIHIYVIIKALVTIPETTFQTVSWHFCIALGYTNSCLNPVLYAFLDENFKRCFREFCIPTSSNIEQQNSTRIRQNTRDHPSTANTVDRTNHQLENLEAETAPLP

In the case of `O=C1NN=C(c2ccccc2)C12CCN(C1CC3CCC1C3)CC2` (centres unmarked) [8-norbornyl-4-phenyl-2,3,8-triazospiro[4.5]dec-3-en-1-one], the inhibition constant (Ki) in experiment [1] (read-out: Nociceptin Affinity calc Ki) is 897 nM.
Turning to `O=C1NNC(c2ccccc2)C12CCN(CC1CCCCCCC1)CC2` (centres unmarked) [8-(cyclooctylmethyl)-1-phenyl-2,3,8-triazospiro[4.5]decan-4-one], the inhibitory constant (Ki) on Mu opioid receptor was 191 nM.
Take `CC(C)CCC(C)N1CCC2(CC1)C(=O)NN=C2c1ccccc1` (centres unmarked) [8-(5-methylhex-2-yl)-4-phenyl-2,3,8-triazospiro[4.5]dec-3-en-1-one]: the Ki in experiment [1] (Nociceptin Affinity calc Ki) is 11.5 nM.
Take `O=C1NNC(c2ccccc2)C12CCN(Cc1ccc3ccccc3c1)CC2` (centres unmarked) [8-[(naphth-2-yl-methyl)]-1-phenyl-2,3,8-triazospiro[4.5]decan-4-one]: on Mu opioid receptor, the Ki was 84 nM.
Take `O=C1NN=C(c2ccccc2)C12CCN(C1CCC3CCCCC3C1)CC2` (centres unmarked) [8-(decahydro-2-naphthyl)-4-phenyl-2,3,8-triazospiro[4.5]dec-3-en-1-one]: the Ki in experiment [1] (Nociceptin Affinity calc Ki) was 1.1 nM.
`O=C1NNC(c2ccccc2)C12CCN(C1CCc3ccccc3C1)CC2` (centres unmarked) [8-(1,2,3,4-tetrahydro-2-naphthyl)-1-phenyl-2,3,8-triazospiro[4.5]decan-4-one]: the Ki at Mu opioid receptor is 115 nM.
As for `O=C1NN=C(c2ccccc2)C12CCN(Cc1ccc(OCc3ccccc3)cc1)CC2` [8-(p-benzyloxybenzyl)-4-phenyl-2,3,8-triazospiro[4.5]dec-3-en-1-one], in experiment [1] (Nociceptin Affinity calc Ki), the inhibition constant (Ki) was 138 nM.
As for `O=C1NN=C(c2ccccc2)C12CCN(Cc1ccccc1)CC2` [8-(benzyl)-4-phenyl-2,3,8-triazospiro[4.5]dec-3-en-1-one], the Ki in experiment [1] (Nociceptin Affinity calc Ki) is 293 nM.
Regarding `O=C1NN=C(c2ccccc2)C12CCN(CCC(c1ccccc1)c1ccccc1)CC2` [8-(3,3-Bis(phenyl)propyl)-4-phenyl-2,3,8-triazospiro[4.5]dec-3-en-1-one], the Ki in experiment [1] (Nociceptin Affinity calc Ki) was 75 nM.
Regarding `O=C1NNC(c2ccccc2)C12CCN(Cc1ccccc1)CC2` (centres unmarked) [8-(benzyl)-1-phenyl-2,3,8-triazospiro[4.5]decan-4-one], the Ki at Mu opioid receptor is 56 nM.
Take `CC(C)C1CCC(N2CCC3(CC2)C(=O)NN=C3c2ccccc2)CC1` (centres unmarked) [8-[4-(2-propyl)-cyclohexyl]-4-phenyl-2,3,8-triazospiro[4.5]dec-3-en-1-one]: the inhibition constant Ki in experiment [1] (Nociceptin Affinity calc Ki) is 1.5 nM.
In the case of `O=C1NN=C(c2ccccc2)C12CCN(CCCC(c1ccc(F)cc1)c1ccc(F)cc1)CC2` [8-[4,4-Bis(4-fluorophenyl)butyl]-4-phenyl-2,3,8-triazospiro[4.5]dec-3-en-1-one], the Ki in experiment [1] (Nociceptin Affinity calc Ki) is 2590 nM.
In the case of `O=C1NN=C(c2ccccc2)C12CCN(CC1CCCCCCC1)CC2` [8-(cyclooctylmethyl)-4-phenyl-2,3,8-triazospiro[4.5]dec-3-en-1-one], the Ki in experiment [1] (Nociceptin Affinity calc Ki) is 8.1 nM and 61 nM.
Take `O=C1NN=C(c2ccccc2)C12CCN(C1c3ccccc3CCc3ccccc31)CC2` [8-(10,11-Dihydro-5H-dibenzo[a,d]-cyclohepten-5-yl)-4-phenyl-2,3,8-triazospiro[4.5]dec-3-en-1-one]: the Ki in experiment [1] (Nociceptin Affinity calc Ki) is 282 nM.
As for `O=C1NN=C(c2ccccc2)C12CCN(Cc1ccc(-c3ccccc3)cc1)CC2` [8-(p-phenylbenzyl)-4-phenyl-2,3,8-triazospiro[4.5]dec-3-en-1-one], the inhibitory constant (Ki) in experiment [1] (Nociceptin Affinity calc Ki) is 7170 nM.
As to `O=C1NN=C(c2ccccc2)C12CCN(Cc1ccc3ccccc3c1)CC2` [8-[(naphth-2-yl-methyl)]-4-phenyl-2,3,8-triazospiro[4.5]dec-3-en-1-one], the inhibitory constant (Ki) in experiment [1] (Nociceptin Affinity calc Ki) is 402 nM.
As to `CCCC1CCC(N2CCC3(CC2)C(=O)NN=C3c2ccccc2)CC1` (centres unmarked) [8-(4-propylcyclohexyl)-4-phenyl-2,3,8-triazospiro[4.5]dec-3-en-1-one], the inhibitory constant (Ki) in experiment [1] (Nociceptin Affinity calc Ki) is 29.7 nM.

These data come from US6635653B2 (priority 2001, dated 2003).
